# Assay results as given in patent US12357711B2, “PSMA binding dual mode radiotracer and therapeutic” (Technische Universität München, priority 2019, dated 2025).
# System: SCID mice
# Assay: Preclinical dosimetry from biodistribution in mice, extrapolated to 70-kg Standard Adult (OLINDA/EXM 1.0)
# Assay type: in vivo
# Settings: 1.0 h bladder voiding interval
# Method: 3-5 mice were injected per timepoint with a mean 25.6±3.6 MBq of 18F-rhPSMA-7 and 28.5±4.8 MBq of 18F-rhPSMA-7.3, respectively. Mice, severe combined immunodeficiency (SCID) were used for the experiments.
# Mice were sacrificed at the following timepoints: • ^18F-rhPSMA-7: 10, 20, 40, 60, 120 and 180 minutes after administration. • ^18F-rhPSMA-7.3: 10, 60, 120, 180 and 300 minutes after administration.
# Urine, blood, heart, lung, spleen, pancreas, liver, stomach (emptied), small intestine (emptied), large intestine (emptied), kidneys, bladder, testis, fat, muscle (partial, femoral), femur, tail and brain. Urine was collected with a pipette in the CO2 gas chamber. In case of missing urination in the chamber the bladder was aspirated with an insulin syringe. Blood was withdrawn instantly after sacrifice with an insulin syringe from the heart. All other tissues and organs were dissected and transferred directly in plastic containers.
# The counting rates of measurement samples were automatically corrected for decay. The radioactivity distribution ratios (unit: percentage of the injected dose (% ID) in the measurement samples were determined using the equation below. The sum of the counting rates from all measurement samples obtained from one mouse was designated as the counting rate for administrated radioactivity.
# The radioactivity distribution ratio per unit weight of the measurement sample (unit: % ID/g) excluding urine and feces samples was determined by using the equation below. The weight of the measurement sample was determined by subtraction of the empty measurement container from the container including the sample.
# For consistency of statistical calculations for each radiotracer the same number of time-points for ^18F-rhPSMA-7 and ^18F-rhPSMA-7.3 was used. Therefore, for ^18F-rhPSMA-7 the 10 min and 20 min time points were combined creating a 15 min endpoint.
# The time-integral of activity for the accumulation in the significant source organs (AUCs) were generated both with numerical integration and physical decay according to J Juan et al., Journal of Pharmaceutical Sciences, 1993, 82:762-763.
# In brief, to calculate a human dosimetry from the biodistribution in the mice, an extrapolation was necessary to account for the differences between the animals and humans. Normal-organ radiation doses were estimated for the 70-kg Standard Adult anatomic model using time-depending organ activity concentrations (in percent of the injected dose per gram, % ID/g) and total-body activities measured in the biodistribution studies in mice.
# Tissue activity concentrations in mice were converted to tissue fractional activities in the 70-kg Standard Adult using the relative fractional organ masses in the Standard Adult and the “standard” 25-gramm mouse. Time-dependent total-body activity was fit to an exponential function and the difference between the injected activity and the total-body activity was assumed to be excreted to the urine because activity concentrations in the liver and GI tracer were low at all time points studied.
# Organ residence time was calculated by numerical integration using the trapezoidal rule and the rest-of-body ^18F residence times was calculated as the difference between the total-body residence time and the sum of the organ and urine residence times. The bladder contents residence time was estimated using the dynamic voiding model in the OLINDA/EXM 1.0 dosimetry software. Finally, the Standard Adult mean organ dose equivalents (in mSv/MBq) and effective dose (also in mSv/MBq) were then calculated using OLIN DA/EXM 1.0.
# Final calculation of radiation absorbed dose and dosimetry from biodistribution in mice: The tissues or organs in which a significant accumulation of radioactivity occurs (i.e., source organ) were kidney, spleen, lung, liver and heart. With respect to activity accumulation and clearance, a rapid clearance from blood and clearance to urine but relatively slow build-up in kidney was found.
compound,measurement,value
"CC(C)(C)[Si](F)(c1ccc(C(=O)NC[C@@H](NC(=O)CC[C@@H](C(=O)O)N2CCN(CC(=O)[O-])CCN(CC(=O)[O-])CCN(CC(=O)[O-])CC2)C(=O)N[C@H](CCCCNC(=O)CCC(=O)NCCC[C@@H](NC(=O)CC[C@H](NC(=O)N[C@@H](CCC(=O)O)C(=O)O)C(=O)O)C(=O)O)C(=O)O)cc1)C(C)(C)C.[Ga+3] [rhPSMA7.3, [^19F][^natGa]D-Dap-S-DOTAGA-rhPSMA7]",Adrenals ED Cont.,5.46E−05 mSv/MBq
same,Adrenals EDE Cont.,0.00E000 mSv/MBq
same,Adrenals dose Alpha,0.00E000 mSv/MBq
same,Adrenals dose Beta,3.12E−03 mSv/MBq
same,Adrenals dose Photon,7.79E−03 mSv/MBq
same,Adrenals dose Total,1.09E−02 mSv/MBq
same,Brain ED Cont.,3.59E−05 mSv/MBq
same,Brain EDE Cont.,0.00E000 mSv/MBq
same,Brain dose Alpha,0.00E000 mSv/MBq
same,Brain dose Beta,3.12E−03 mSv/MBq
same,Brain dose Photon,4.06E−03 mSv/MBq
same,Brain dose Total,7.18E−03 mSv/MBq
same,Breasts ED Cont.,3.32E−04 mSv/MBq
same,Breasts EDE Cont.,9.97E−04 mSv/MBq
same,Breasts dose Alpha,0.00E000 mSv/MBq
same,Breasts dose Beta,3.12E−03 mSv/MBq
same,Breasts dose Photon,3.53E−03 mSv/MBq
same,Breasts dose Total,6.65E−03 mSv/MBq
same,Gallbladder Wall ED Cont.,0.00E000 mSv/MBq
same,Gallbladder Wall EDE Cont.,0.00E000 mSv/MBq
same,Gallbladder Wall dose Alpha,0.00E000 mSv/MBq
same,Gallbladder Wall dose Beta,3.12E−03 mSv/MBq
same,Gallbladder Wall dose Photon,7.11E−03 mSv/MBq
same,Gallbladder Wall dose Total,1.02E−02 mSv/MBq
same,Heart Wall ED Cont.,0.00E000 mSv/MBq
same,Heart Wall EDE Cont.,0.00E000 mSv/MBq
same,Heart Wall dose Alpha,0.00E000 mSv/MBq
same,Heart Wall dose Beta,1.32E−03 mSv/MBq
same,Heart Wall dose Photon,5.36E−03 mSv/MBq
same,Heart Wall dose Total,6.68E−03 mSv/MBq
same,Kidneys ED Cont.,3.58E−04 mSv/MBq
same,Kidneys EDE Cont.,4.29E−03 mSv/MBq
same,Kidneys dose Alpha,0.00E000 mSv/MBq
same,Kidneys dose Beta,5.11E−02 mSv/MBq
same,Kidneys dose Photon,2.04E−02 mSv/MBq
same,Kidneys dose Total,7.16E−02 mSv/MBq
same,LLI Wall ED Cont.,1.39E−03 mSv/MBq
same,LLI Wall EDE Cont.,6.94E−04 mSv/MBq
same,LLI Wall dose Alpha,0.00E000 mSv/MBq
same,LLI Wall dose Beta,3.12E−03 mSv/MBq
same,LLI Wall dose Photon,8.45E−03 mSv/MBq
same,LLI Wall dose Total,1.16E−02 mSv/MBq
same,Liver ED Cont.,2.92E−04 mSv/MBq
same,Liver EDE Cont.,0.00E000 mSv/MBq
same,Liver dose Alpha,0.00E000 mSv/MBq
same,Liver dose Beta,9.70E−04 mSv/MBq
same,Liver dose Photon,4.87E−03 mSv/MBq
same,Liver dose Total,5.84E−03 mSv/MBq
same,Lungs ED Cont.,7.90E−04 mSv/MBq
same,Lungs EDE Cont.,7.90E−04 mSv/MBq
same,Lungs dose Alpha,0.00E000 mSv/MBq
same,Lungs dose Beta,1.95E−03 mSv/MBq
same,Lungs dose Photon,4.63E−03 mSv/MBq
same,Lungs dose Total,6.58E−03 mSv/MBq
same,Muscle ED Cont.,4.30E−05 mSv/MBq
same,Muscle EDE Cont.,0.00E000 mSv/MBq
same,Muscle dose Alpha,0.00E000 mSv/MBq
same,Muscle dose Beta,3.12E−03 mSv/MBq
same,Muscle dose Photon,5.47E−03 mSv/MBq
same,Muscle dose Total,8.59E−03 mSv/MBq
same,Osteogenic Cells ED Cont.,1.28E−04 mSv/MBq
same,Osteogenic Cells EDE Cont.,3.84E−04 mSv/MBq
same,Osteogenic Cells dose Alpha,0.00E000 mSv/MBq
same,Osteogenic Cells dose Beta,6.70E−03 mSv/MBq
same,Osteogenic Cells dose Photon,6.11E−03 mSv/MBq
same,Osteogenic Cells dose Total,1.28E−02 mSv/MBq
same,Ovaries ED Cont.,2.35E−03 mSv/MBq
same,Ovaries EDE Cont.,2.93E−03 mSv/MBq
same,Ovaries dose Alpha,0.00E000 mSv/MBq
same,Ovaries dose Beta,3.12E−03 mSv/MBq
same,Ovaries dose Photon,8.61E−03 mSv/MBq
same,Ovaries dose Total,1.17E−02 mSv/MBq
same,Pancreas ED Cont.,5.62E−05 mSv/MBq
same,Pancreas EDE Cont.,0.00E000 mSv/MBq
same,Pancreas dose Alpha,0.00E000 mSv/MBq
same,Pancreas dose Beta,3.12E−03 mSv/MBq
same,Pancreas dose Photon,8.12E−03 mSv/MBq
same,Pancreas dose Total,1.12E−02 mSv/MBq
same,Red Marrow ED Cont.,9.97E−04 mSv/MBq
same,Red Marrow EDE Cont.,9.97E−04 mSv/MBq
same,Red Marrow dose Alpha,0.00E000 mSv/MBq
same,Red Marrow dose Beta,2.22E−03 mSv/MBq
same,Red Marrow dose Photon,6.09E−03 mSv/MBq
same,Red Marrow dose Total,8.31E−03 mSv/MBq
same,Skin ED Cont.,6.57E−05 mSv/MBq
same,Skin EDE Cont.,0.00E000 mSv/MBq
same,Skin dose Alpha,0.00E000 mSv/MBq
same,Skin dose Beta,3.12E−03 mSv/MBq
same,Skin dose Photon,3.45E−03 mSv/MBq
same,Skin dose Total,6.57E−03 mSv/MBq
same,Small Intestine ED Cont.,5.45E−05 mSv/MBq
same,Small Intestine EDE Cont.,0.00E000 mSv/MBq
same,Small Intestine dose Alpha,0.00E000 mSv/MBq
same,Small Intestine dose Beta,3.12E−03 mSv/MBq
same,Small Intestine dose Photon,7.78E−03 mSv/MBq
same,Small Intestine dose Total,1.09E−02 mSv/MBq
same,Spleen ED Cont.,1.33E−04 mSv/MBq
same,Spleen EDE Cont.,1.59E−03 mSv/MBq
same,Spleen dose Alpha,0.00E000 mSv/MBq
same,Spleen dose Beta,1.52E−02 mSv/MBq
same,Spleen dose Photon,1.14E−02 mSv/MBq
same,Spleen dose Total,2.66E−02 mSv/MBq
same,Stomach Wall ED Cont.,1.19E−03 mSv/MBq
same,Stomach Wall EDE Cont.,0.00E000 mSv/MBq
same,Stomach Wall dose Alpha,0.00E000 mSv/MBq
same,Stomach Wall dose Beta,3.12E−03 mSv/MBq
same,Stomach Wall dose Photon,6.80E−03 mSv/MBq
same,Stomach Wall dose Total,9.92E−03 mSv/MBq
same,Testes ED Cont.,0.00E000 mSv/MBq
same,Testes EDE Cont.,0.00E000 mSv/MBq
same,Testes dose Alpha,0.00E000 mSv/MBq
same,Testes dose Beta,3.12E−03 mSv/MBq
same,Testes dose Photon,6.08E−03 mSv/MBq
same,Testes dose Total,9.20E−03 mSv/MBq
same,Thymus ED Cont.,4.09E−05 mSv/MBq
same,Thymus EDE Cont.,0.00E000 mSv/MBq
same,Thymus dose Alpha,0.00E000 mSv/MBq
same,Thymus dose Beta,3.12E−03 mSv/MBq
same,Thymus dose Photon,5.06E−03 mSv/MBq
same,Thymus dose Total,8.18E−03 mSv/MBq
same,Thyroid ED Cont.,4.13E−04 mSv/MBq
same,Thyroid EDE Cont.,2.48E−04 mSv/MBq
same,Thyroid dose Alpha,0.00E000 mSv/MBq
same,Thyroid dose Beta,3.12E−03 mSv/MBq
same,Thyroid dose Photon,5.15E−03 mSv/MBq
same,Thyroid dose Total,8.27E−03 mSv/MBq
same,Total Body ED Cont.,0.00E000 mSv/MBq
same,Total Body EDE Cont.,0.00E000 mSv/MBq
same,Total Body dose Alpha,0.00E000 mSv/MBq
same,Total Body dose Beta,3.45E−03 mSv/MBq
same,Total Body dose Photon,5.42E−03 mSv/MBq
same,Total Body dose Total,8.87E−03 mSv/MBq
same,ULI Wall ED Cont.,5.23E−05 mSv/MBq
same,ULI Wall EDE Cont.,0.00E000 mSv/MBq
same,ULI Wall dose Alpha,0.00E000 mSv/MBq
same,ULI Wall dose Beta,3.12E−03 mSv/MBq
same,ULI Wall dose Photon,7.33E−03 mSv/MBq
same,ULI Wall dose Total,1.05E−02 mSv/MBq
same,Urinary Bladder Wall ED Cont.,3.92E−03 mSv/MBq
same,Urinary Bladder Wall EDE Cont.,4.70E−03 mSv/MBq
same,Urinary Bladder Wall dose Alpha,0.00E000 mSv/MBq
same,Urinary Bladder Wall dose Beta,5.18E−02 mSv/MBq
same,Urinary Bladder Wall dose Photon,2.66E−02 mSv/MBq
same,Urinary Bladder Wall dose Total,7.84E−02 mSv/MBq
same,Uterus ED Cont.,7.13E−05 mSv/MBq
same,Uterus EDE Cont.,8.55E−04 mSv/MBq
same,Uterus dose Alpha,0.00E000 mSv/MBq
same,Uterus dose Beta,3.12E−03 mSv/MBq
same,Uterus dose Photon,1.11E−02 mSv/MBq
same,Uterus dose Total,1.43E−02 mSv/MBq
